Test results as given in ChEMBL document CHEMBL1201862, “PubChem BioAssay data set” (2004).
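Values below derive from 48-hour exposures of cells grown in 96-well plates, with endpoints linearly interpolated between the two concentrations bracketing the appropriate inhibition level. GI50 = concentration required for 50% inhibition of growth.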 Activity calls are given as the source filed them. No stated cut-off is given here; in the data, active = GI50 up to about 1.1 µM and inactive = higher.

What was measured:
Test in all cases: NCI-60 cell line screen, 48 h
OVCAR-3 = tested on: OVCAR-3
NCI-H23 = tested on: NCI-H23
MDA-MB-435 = tested on: MDA-MB-435
NCI-H522 = tested on: NCI-H522
HCC 2998 = tested on: HCC 2998
SNB-75 = tested on: SNB-75
SR = tested on: SR
NCI-H460 = tested on: NCI-H460
RPMI-8226 = tested on: RPMI-8226
A549 = tested on: A549
U-251 = tested on: U-251
SK-MEL-5 = tested on: SK-MEL-5
SF-539 = tested on: SF-539
TK-10 = tested on: TK-10
T47D = tested on: T47D
OVCAR-4 = tested on: OVCAR-4
CCRF-CEM = tested on: CCRF-CEM
SK-MEL-2 = tested on: SK-MEL-2
OVCAR-8 = tested on: OVCAR-8
HT-29 = tested on: HT-29
SK-MEL-28 = tested on: SK-MEL-28
UACC-62 = tested on: UACC-62
BT-549 = tested on: BT-549
MDA-MB-231 = tested on: MDA-MB-231
SN12C = tested on: SN12C
DU-145 = tested on: DU-145
Malme-3M = tested on: Malme-3M
COLO 205 = tested on: COLO 205
HCT-15 = tested on: HCT-15
K562 = tested on: K562
Hs-578T = tested on: Hs-578T
RXF 393 = tested on: RXF 393
SK-OV-3 = tested on: SK-OV-3
LOX IMVI = tested on: LOX IMVI
MOLT-4 = tested on: MOLT-4
IGROV-1 = tested on: IGROV-1
SF-295 = tested on: SF-295
A498 = tested on: A498
CAKI-1 = tested on: CAKI-1
SNB-19 = tested on: SNB-19
NCI-H226 = tested on: NCI-H226
HOP-92 = tested on: HOP-92
HCT-116 = tested on: HCT-116
EKVX = tested on: EKVX
M14 = tested on: M14
MCF7 = tested on: MCF7
KM12 = tested on: KM12
OVCAR-5 = tested on: OVCAR-5
786-0 = tested on: 786-0
HL-60 = tested on: HL-60
ACHN = tested on: ACHN
SW-620 = tested on: SW-620
SF-268 = tested on: SF-268
UACC-257 = tested on: UACC-257
PC-3 = tested on: PC-3
NCI/ADR-RES = tested on: NCI/ADR-RES
MDA-N = tested on: MDA-N
HOP-62 = tested on: HOP-62
UO-31 = tested on: UO-31

Measured: GI50

c1ccc(C2=NC3OC2c2ccccc23)cc1 (configuration not stated)
> 10 µM: HCT-15
inactive: OVCAR-3 > 10 µM | NCI-H23 > 10 µM | MDA-MB-435 > 10 µM | NCI-H522 > 10 µM | HCC 2998 > 10 µM | SNB-75 > 10 µM | SR > 10 µM | NCI-H460 > 10 µM | RPMI-8226 > 10 µM | A549 > 10 µM | U-251 > 10 µM | SK-MEL-5 > 10 µM | SF-539 > 10 µM | TK-10 > 10 µM | T47D > 10 µM | OVCAR-4 > 10 µM | CCRF-CEM > 10 µM | SK-MEL-2 > 10 µM | OVCAR-8 > 10 µM | HT-29 > 10 µM | SK-MEL-28 > 10 µM | UACC-62 > 10 µM | BT-549 > 10 µM | MDA-MB-231 > 10 µM | SN12C > 10 µM | DU-145 > 10 µM | Malme-3M > 10 µM | COLO 205 > 10 µM | K562 > 10 µM | Hs-578T > 10 µM | RXF 393 > 10 µM | SK-OV-3 > 10 µM | LOX IMVI > 10 µM | MOLT-4 > 10 µM | IGROV-1 > 10 µM | SF-295 > 10 µM | A498 > 10 µM | CAKI-1 > 10 µM | SNB-19 > 10 µM | NCI-H226 > 10 µM | HOP-92 > 10 µM | HCT-116 > 10 µM | EKVX > 10 µM | M14 > 10 µM | MCF7 3.15 µM | KM12 > 10 µM | OVCAR-5 > 10 µM | 786-0 > 10 µM | HL-60 > 10 µM | ACHN > 10 µM | SW-620 > 10 µM | SF-268 > 10 µM | UACC-257 > 10 µM | PC-3 > 10 µM | NCI/ADR-RES > 10 µM | MDA-N > 10 µM | HOP-62 > 10 µM

CSC12c3cc(C)n(-c4ccc(I)cc4)c3CC(C)(C)CN1C(=O)C2Oc1ccccc1 (configuration not stated)
> 100 µM: HCT-15
inactive: OVCAR-3 > 100 µM | NCI-H23 > 100 µM | MDA-MB-435 > 100 µM | NCI-H522 > 100 µM | HCC 2998 > 100 µM | SNB-75 > 100 µM | SR > 91.2 µM | NCI-H460 > 100 µM | RPMI-8226 > 71.1 µM | A549 > 96.4 µM | U-251 > 100 µM | SK-MEL-5 97.5 µM | SF-539 > 100 µM | TK-10 > 100 µM | T47D 5.97 µM | OVCAR-4 > 100 µM | CCRF-CEM > 100 µM | SK-MEL-2 > 100 µM | OVCAR-8 > 100 µM | HT-29 > 100 µM | SK-MEL-28 > 100 µM | UACC-62 > 100 µM | BT-549 > 100 µM | MDA-MB-231 > 100 µM | SN12C > 100 µM | DU-145 > 100 µM | Malme-3M > 100 µM | COLO 205 > 100 µM | K562 > 87.1 µM | Hs-578T > 100 µM | UO-31 > 100 µM | RXF 393 > 100 µM | SK-OV-3 > 100 µM | LOX IMVI > 100 µM | MOLT-4 > 63.1 µM | IGROV-1 > 100 µM | SF-295 > 100 µM | A498 97.5 µM | CAKI-1 > 100 µM | SNB-19 > 100 µM | NCI-H226 > 100 µM | HOP-92 > 100 µM | HCT-116 48.6 µM | EKVX > 67 µM | M14 > 100 µM | MCF7 14.1 µM | KM12 > 100 µM | OVCAR-5 > 100 µM | 786-0 > 100 µM | HL-60 93.3 µM | ACHN > 100 µM | SW-620 > 100 µM | SF-268 > 100 µM | UACC-257 > 66.5 µM | PC-3 98.6 µM | NCI/ADR-RES > 100 µM | MDA-N > 100 µM | HOP-62 > 100 µM
